Reference: patent US20230037975A1, “USE OF C[…] IN ORAL CARE COMPOSITIONS TO INHIBIT THE GROWTH OF P. GINGIVALIS” (Demetrix, Inc., priority 2021, published 2023)
Values after ≈ are worked out from the molar mass of the structure shown. Where two headings read alike, the source gives them in different places.

System: Porphyromonas gingivalis
Experiment: minimum inhibitory concentration (MIC) assay against P. gingivalis
Assay type: cell-based
Experimental: To determine the ability of the cannabinoid compounds described herein to reduce, or eliminate, P. gingivalis a minimum inhibitory concentration (“MIC”) assay was performed. The assay was performed by Charles River Laboratories International (Wilmington, Mass.) in accordance with industry standards.

[1] = Porphyromonas gingivalis, read-out: minimum inhibitory concentration (MIC) against P. gingivalis
[2] = Porphyromonas gingivalis; against P. gingivalis; Table 1; read-out: MIC
[3] = Porphyromonas gingivalis; read-out: minimum inhibitory concentration (MIC) against P. gingivalis

Row | Molecule | MIC [1] [µg/mL] | MIC [2] [µg/mL] | minimum inhibitory concentration (MIC) against P. gingivalis [µg/mL] | MIC (against P. gingivalis; Table 1) [µg/mL] | MIC [3] [µg/mL]
1 | CCCCCc1cc(O)c(C/C=C(\C)CCC=C(C)C)c(O)c1 [CBG, cannabigerol] | < 1 | 0.78 (≈ 2.46 µM) |  |  | 
2 | CCCc1cc(O)c(C/C=C(\C)CCC=C(C)C)c(O)c1C(=O)O [CBGVA, cannabigerovarinic acid] |  |  | 25 (≈ 75.2 µM) | 25 (≈ 75.2 µM) | 
3 | C=C(C)[C@@H]1CCC(C)=C[C@H]1c1c(O)cc(CCCCC)cc1O [CBD, cannabidol] |  |  | 3.125 (≈ 9.94 µM) | 3.125 (≈ 9.94 µM) | 
4 | C=C(C)[C@@H]1CCC(C)=C[C@H]1c1c(O)cc(C)cc1O [CBD-C1, Cannabidiorcol] |  |  | 100 (≈ 387 µM) | 100 (≈ 387 µM) | 
5 | CCCCCc1cc(O)c2c(c1)OC(C)(CCC=C(C)C)C=C2 (stereo not drawn) [CBC, cannabichromene] |  | 1.56 (≈ 4.96 µM) |  |  | 1.56 (≈ 4.96 µM)
6 | CCCCc1cc(O)c(CC=C(C)CCC=C(C)C)c(O)c1 [CBG-C4, cannabigerol butyl] |  |  | 3.125 (≈ 10.3 µM) | 3.125 (≈ 10.3 µM) | 
7 | C=C(C)[C@@H]1CCC(C)=C[C@H]1c1c(O)cc(CCCC)cc1O [CBD-C4, cannabidol-C4] |  |  | 3.125 (≈ 10.4 µM) | 3.125 (≈ 10.4 µM) | 
8 | CCCCCc1cc2c(c(O)c1C(=O)O)C1C3C(CCC3(C)O2)C1(C)C (stereo not drawn) [CBLA, cannabicyclolic acid] |  |  | 3.125 (≈ 8.72 µM) | 3.125 (≈ 8.72 µM) | 
9 | CCCCCc1cc(O)c2c(c1)OC(C)(C)c1ccc(C)cc1-2 [CBN, cannabinol] |  | 3.12 (≈ 10.1 µM) |  |  | 3.12 (≈ 10.1 µM)
10 | C=C(C)[C@@H]1CCC(C)=C[C@H]1c1c(O)cc(CCC)c(C(=O)O)c1O [CBDVA, cannabidivarinic acid] |  |  | 25 (≈ 75.7 µM) | 25 (≈ 75.7 µM) | 
11 | CCCCCc1cc(O)c(C/C=C(\C)CCC=C(C)C)c(O)c1C(=O)O [CBGA, cannabigerolic acid] | < 1 | ≤ 0.097 |  |  | 
12 | CCCCCc1cc2c(c(O)c1C(=O)O)C=CC(C)(CCC=C(C)C)O2 (stereo not drawn) [CBCA, cannabichromenic acid] |  |  | 3.125 (≈ 8.72 µM) | 3.125 (≈ 8.72 µM) | 
13 | CCCCCc1cc2c(c(O)c1C(=O)O)-c1cc(C)ccc1C(C)(C)O2 [CBNA, cannabinolic acid] |  |  | 3.125 (≈ 8.82 µM) | 3.125 (≈ 8.82 µM) | 
14 | C=C(C)[C@@H]1CCC(C)=C[C@H]1c1c(O)cc(CCC)cc1O [CBDV, cannabidivarin] |  | 3.12 (≈ 10.9 µM) |  |  | 3.12 (≈ 10.9 µM)
15 | C=C(C)[C@@H]1CCC(C)=C[C@H]1c1c(O)cc(CC)cc1O [CBD-C2, Cannabidol-C2] |  |  | 6.25 (≈ 22.9 µM) | 6.25 (≈ 22.9 µM) | 
16 | CCCCc1cc(O)c(C/C=C(\C)CCC=C(C)C)c(O)c1C(=O)O [CBGA-C4, cannabigerolic acid butyl] |  |  | 6.25 (≈ 18 µM) | 6.25 (≈ 18 µM) | 
17 | (+)-cannabidiol [(+)-CBD] |  |  |  | 0.78 | 
18 | CCCCCc1cc(O)c2c(c1)OC1(C)CCC3C1C2C3(C)C (stereo not drawn) [CBL, cannabicyclol] |  | > 200 |  |  | > 200
19 | CCCc1cc(O)c(C/C=C(\C)CCC=C(C)C)c(O)c1 [CBGV, cannabigerivarin] |  |  | 3.125 (≈ 10.8 µM) | 3.125 (≈ 10.8 µM) | 
20 | C=C(C)[C@@H]1CCC(C)=C[C@H]1c1c(O)cc(CCCCC)c(C(=O)O)c1O [CBDA, cannabidiolic acid] | < 1 | 0.39 (≈ 1.09 µM) |  |  | 
